According to patent US7423015B1, “Antihelminthic drugs as a treatment for hyperproliferative diseases” (Board of Regents, The University of Texas System, priority 2001, dated 2008):

Legend:
[1] = tested on: H1299 (p53 deleted), H322 (p53 mutated), H460 (wt p53) and A549 (wt p53) human lung cancer cell lines; assay: 3-day growth assay with Ad5p53 and FZ; format: cell-based
Experimental: In those assays, growing, cultured cells were trypsinized and plated (10^4 cells/well) and then infected the next day with Ad5p53 at 1 MOI. Viral supernatant was then added, after which cells were incubated for 24 h, washed with PBS, fed fresh medium or incubated with medium containing FZ for 24 h, washed again, and fed fresh medium. In contrast, uninfected cells (controls) were treated with FZ for 24 h, washed with PBS, fed fresh medium, and then subjected to a 3-day growth assay (FIG. 4A).

[2] = tested on: human lung cancer cell lines (H460 and A549); assay: In vitro proliferation assay with MZ, cell count; format: cell-based; conditions: 24 h treatment, read-out: half maximal inhibitory concentration (IC50)
Experimental: (§1) Cells of the human non-small cell lung cancer (NSCLC) cell line A549, WI-38 normal fibroblast (American Type Culture Collection, Rockville, Md.) and H460 (a gift from Drs. Adi Gazdar and John Minna. University of Texas Southwestern Medical Center, Dallas) were seeded on culture plates (2×10^4 cells/well) in F12 and RPMI medium, respectively, supplemented with 10% heat-inactivated fetal calf serum and antibiotics. HUVEC were grown in medium supplemented with growth factor (Clonetics, San Diego). The cells were then exposed to MZ dissolved in dimethyl sulfoxide (DMSO) when grown to 40-50% confluence. Cell growth was monitored by counting the cells using a hemocytometer.
(§2) Initially, the inventors examined the effect of MZ on proliferation of human lung cancer cell lines (H460 and A549) in vitro.

[3] = tested on: adenovirus expressed MDA-7; assay: Adenovirus expressed MDA-7 levels; format: cell-based
[4] = biological target: topoisomerase I (Homo sapiens, UniProt P11387); assay: Test for topoisomerase I poison effect; format: biochemical
Sequence of topoisomerase I (P11387 whole entry): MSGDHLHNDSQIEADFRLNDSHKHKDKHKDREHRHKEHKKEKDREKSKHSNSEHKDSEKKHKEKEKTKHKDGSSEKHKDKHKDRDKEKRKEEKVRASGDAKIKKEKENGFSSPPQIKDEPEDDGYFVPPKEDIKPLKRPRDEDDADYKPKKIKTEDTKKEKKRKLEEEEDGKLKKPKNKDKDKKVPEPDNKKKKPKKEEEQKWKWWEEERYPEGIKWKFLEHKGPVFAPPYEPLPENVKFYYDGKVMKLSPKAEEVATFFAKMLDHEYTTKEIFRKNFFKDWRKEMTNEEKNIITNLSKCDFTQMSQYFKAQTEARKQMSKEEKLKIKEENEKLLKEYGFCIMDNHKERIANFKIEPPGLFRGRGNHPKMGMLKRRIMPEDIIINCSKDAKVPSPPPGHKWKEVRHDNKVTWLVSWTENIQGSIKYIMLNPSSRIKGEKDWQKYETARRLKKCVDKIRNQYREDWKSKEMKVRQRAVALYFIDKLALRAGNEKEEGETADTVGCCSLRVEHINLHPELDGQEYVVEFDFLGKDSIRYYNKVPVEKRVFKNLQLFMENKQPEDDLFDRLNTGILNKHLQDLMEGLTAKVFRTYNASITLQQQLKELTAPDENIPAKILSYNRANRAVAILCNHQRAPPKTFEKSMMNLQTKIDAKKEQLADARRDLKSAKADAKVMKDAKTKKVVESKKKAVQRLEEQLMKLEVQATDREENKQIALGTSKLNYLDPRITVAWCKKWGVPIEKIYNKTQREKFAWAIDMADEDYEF
Text: It has been shown recently that BZ are substrates for the P-glycoprotein transporter in multidrug-resistant tumor cells (Nare et al. 1994). It may be speculated that P-glycoprotein, which is overexpressed in several normal tissues and organs, could mediate the transport of BZ. Some terbenzimidazole compounds have been reported to be topoisomerase I poisons (Pilch et al., 1996).

[5] = tested on: HUVEC cell tube formation; assay: HUVEC tube formation in conditioned medium; format: cell-based, human
Text: One of the most encouraging findings is that MZ inhibited the neovascularization in the human xenografts tested. […] The inventors have thus shown that MZ is a potent antiangiogeneic agent. It had no effect on endothelial cell growth, instead directly targeting tumor cells in vivo. MZ may be effective in the treatment of cancer and other angiogenesis-dependent diseases.

[6] = tested on: normal fibroblast; assay: In vitro proliferation assay with MZ, cell count; format: cell-based, human; conditions: 24 h treatment
Experimental: as §1, §2

With COC(=O)Nc1nc2ccc(Sc3ccccc3)cc2[nH]1 [Fenbendazole, methy 5-(phenylthio)-2-benzimidazole-2-carbamate] the “cell growth after FZ alone, p53-mutated and deleted cells” value ([1]; 0.05 μg/ml FZ for 24 h) was “not growth inhibited”, the “growth inhibition after FZ alone, wt p53 H460 cells” value ([1]; 0.05 μg/ml FZ for 24 h) was “significantly so” and the “cell growth after Ad5p53 plus FZ” value ([1]; Ad5p53-transduced cells (1 MOI, 24 h) treated with FZ for 24 h, all four cell lines, 3-days growth assay) was “striking growth inhibition”.
For COC(=O)Nc1nc2ccc(C(=O)c3ccccc3)cc2[nH]1 [Mebendazole, Methyl 5-benzoylbenzimidazole-2-carbamate], the IC50 [2] was ~120 nM, the “levels of adenovirus expressed MDA-7” value [3] was “increased levels” and the “topoisomerase I poison effect” value [4] was “could not detect any”. For the same molecule, the “HUVEC cell tube formation” value [5] was “inhibited” and the “effect on growth of normal fibroblast” value [6] was “no effect”.
